We go through eleven molecules from ChEMBL document CHEMBL1201862, “PubChem BioAssay data set” (2004).

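Method: 48-hour compound exposure of cells in 96-well plates, five concentrations, linear interpolation of endpoints. The concentration for 50% growth inhibition is given as GI50.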 Activity calls are given as the source filed them. No stated cut-off is given here; in the data, active = GI50 up to about 1.1 µM and inactive = higher.

Some test systems named below: K562; SNB-19; MDA-MB-435; HL-60; SF-539; TK-10; SR; HCT-116; Malme-3M; NCI/ADR-RES; A549; OVCAR-4; NCI-H460; OVCAR-8; PC-3; NCI-H23; A498; KM12; U-251; CAKI-1.
Holding throughout (test): NCI tumour cell line growth inhibition, 48 h

In the case of `NC1CC(=O)c2c(Cl)sc(Cl)c21` (stereo not drawn), the GI50 is 2.03 µM (inactive) with K562; 13.2 µM (inactive) in the test on SNB-19; 4.62 µM (inactive) in the test with MDA-MB-435; 1.6 µM (inactive) with HL-60; 2.37 µM (inactive) with SF-539; 2.43 µM (inactive) with TK-10. Moreover, the GI50 in the test with SR was 0.493 µM (active); in the test with HCT-116, 1.43 µM (inactive); with Malme-3M it was 2.22 µM (inactive); with NCI/ADR-RES, 15 µM (inactive); in the test with A549, 12.7 µM (inactive); in the test with OVCAR-4 it was 6.44 µM (inactive). Besides, the GI50 in the test with NCI-H460 was 14.5 µM (inactive); in the test with OVCAR-8 it was 5.46 µM (inactive); in the test on PC-3, 6.21 µM (inactive); in the test on NCI-H23 it was 10.5 µM (inactive); in the test with A498 it was 15.3 µM (inactive); with KM12, 3.06 µM (inactive). In addition, the values for the GI50 with U-251 and with CAKI-1 were 3.77 µM (inactive) and 2.7 µM (inactive), respectively.

Regarding `CCCCCCCCCCCC[S+](C)C`, the GI50 was 3.48 µM (inactive) in the test on K562; 6.59 µM (inactive) in the test with SNB-19; 3.36 µM (inactive) in the test with MDA-MB-435; 3.01 µM (inactive) in the test on HL-60; 6.24 µM (inactive) in the test with SF-539; 3.15 µM (inactive) with TK-10. The GI50 in the test with SR is 8.69 µM (inactive); with HCT-116 it was 6.22 µM (inactive); with Malme-3M, 8.38 µM (inactive); in the test on NCI/ADR-RES it was > 44.1 µM (inactive); in the test on A549, 11.5 µM (inactive); in the test on OVCAR-4 it was 6.07 µM (inactive). The GI50 is 9.4 µM (inactive) in the test on NCI-H460; 4.67 µM (inactive) in the test on OVCAR-8; 1.58 µM (inactive) with PC-3; 4.48 µM (inactive) in the test with NCI-H23; 10.7 µM (inactive) in the test with A498; 3.36 µM (inactive) in the test with KM12. The figures for the GI50 in the test on U-251 and with CAKI-1 were 5.25 µM (inactive) and 1.57 µM (inactive), respectively.

Consider `O=C1c2cccc([N+](=O)[O-])c2C(=O)N1Cc1ccccc1`, for which the GI50 in the test on K562, with SNB-19, with MDA-MB-435, in the test on HL-60, in the test on SF-539 and with TK-10 was > 100 µM (inactive) in each case. Besides, the GI50 in the test on SR, in the test on HCT-116, in the test with NCI/ADR-RES, in the test with A549, with OVCAR-4 and with NCI-H460 was > 100 µM (inactive) each time. Besides, the GI50 in the test with OVCAR-8, in the test with PC-3, with NCI-H23, in the test on A498, with KM12 and in the test with U-251 was > 100 µM (inactive) throughout. Further, the GI50 in the test on CAKI-1 was > 100 µM (inactive).

On to `Nc1ncc(C=O)c(NCC2(CO)CCC2)n1`, for which the GI50 was 36.4 µM (inactive) with K562; 44.9 µM (inactive) in the test with MDA-MB-435; 13 µM (inactive) in the test on HL-60; 39.7 µM (inactive) in the test with SF-539; 15.4 µM (inactive) in the test with TK-10; 18 µM (inactive) with SR. The GI50 in the test with HCT-116 is 36.6 µM (inactive); in the test on Malme-3M, 77.4 µM (inactive); in the test with NCI/ADR-RES, 65.9 µM (inactive); in the test on A549, 37.5 µM (inactive); in the test with OVCAR-4, 48.9 µM (inactive); in the test with NCI-H460, 50 µM (inactive). Moreover, the GI50 was 51.1 µM (inactive) in the test with OVCAR-8; 82.4 µM (inactive) in the test on PC-3; 33.5 µM (inactive) in the test on NCI-H23; 26.3 µM (inactive) in the test on A498; 83.9 µM (inactive) with KM12; 35.6 µM (inactive) in the test with U-251. Moreover, the GI50 in the test on CAKI-1 was 2.25 µM (inactive).

On to `COc1ccc(Nc2nc3ccccc3n3cccc23)cc1OC`, for which the GI50 is 21 µM (inactive) with K562; 33.7 µM (inactive) in the test with SNB-19; 13.8 µM (inactive) with MDA-MB-435; 0.0528 µM (active) with HL-60; 16.6 µM (inactive) in the test on SF-539; 16.5 µM (inactive) in the test on TK-10. The GI50 in the test on SR is 12.8 µM (inactive); in the test on HCT-116 it was 16.9 µM (inactive); in the test with Malme-3M, 18.9 µM (inactive); in the test with NCI/ADR-RES it was 17.4 µM (inactive); in the test on A549, 17.5 µM (inactive); with NCI-H460, 12.9 µM (inactive). Further, the GI50 with OVCAR-8 is 15.9 µM (inactive); in the test with PC-3, 11.7 µM (inactive); in the test on NCI-H23, 14.8 µM (inactive); with A498 it was 17.9 µM (inactive); in the test on KM12, 13.1 µM (inactive); in the test on U-251 it was 16.9 µM (inactive). Besides, the GI50 in the test with CAKI-1 is 25.2 µM (inactive).

With `CC1=NN(c2cccc(Cl)c2)C(=N/c2nc3ccccc3s2)/C1=C\c1cccs1`, the GI50 with K562 was 32.7 µM (inactive); in the test on MDA-MB-435 it was 55.6 µM (inactive); in the test with HL-60, 14.3 µM (inactive); with SF-539, 42 µM (inactive); in the test on TK-10, 45.7 µM (inactive); in the test on SR, 19.5 µM (inactive). The GI50 in the test on HCT-116 is 44.8 µM (inactive); with NCI/ADR-RES, 20.9 µM (inactive); in the test with OVCAR-4, 35.6 µM (inactive); with NCI-H460 it was 35.6 µM (inactive); with OVCAR-8, 48.3 µM (inactive); in the test with PC-3, 32.1 µM (inactive). Further, the GI50 was 22.5 µM (inactive) in the test on NCI-H23; 28.8 µM (inactive) in the test with A498; 43.8 µM (inactive) with KM12; 24 µM (inactive) with U-251; 52.7 µM (inactive) in the test on CAKI-1.

As to `COC(=O)c1ccc2cc(O)c(O)cc2c1`, the GI50 is 33.9 µM (inactive) in the test with K562; 22.8 µM (inactive) in the test on SNB-19; 34.7 µM (inactive) in the test on MDA-MB-435; > 100 µM (inactive) in the test on HL-60; 40 µM (inactive) in the test with SF-539; 27.9 µM (inactive) in the test on TK-10. In addition, the GI50 in the test with SR is 13.2 µM (inactive); in the test on HCT-116, 41 µM (inactive); in the test on Malme-3M it was 35.8 µM (inactive); in the test with NCI/ADR-RES, 25.6 µM (inactive); in the test with A549, 36.9 µM (inactive); with OVCAR-4, 43.6 µM (inactive). For the same molecule, the GI50 was 33 µM (inactive) in the test on OVCAR-8; 32.4 µM (inactive) in the test with PC-3; 26.5 µM (inactive) in the test on NCI-H23; 30.8 µM (inactive) in the test with A498; 30.9 µM (inactive) in the test with KM12; 29.6 µM (inactive) in the test with U-251. Further, the GI50 in the test with CAKI-1 was 78.2 µM (inactive).

Turning to `COc1ncc(/C=C2\OC(=O)c3ccccc32)c(OC)n1`, the GI50 with K562 is 29.2 µM (inactive); with SNB-19 it was 26.5 µM (inactive); in the test with MDA-MB-435 it was 77.8 µM (inactive); in the test on HL-60, > 100 µM (inactive); in the test with SF-539 it was 12.7 µM (inactive); in the test with TK-10, 16.2 µM (inactive). The GI50 is 30.1 µM (inactive) with SR; > 100 µM (inactive) in the test with HCT-116; 10.7 µM (inactive) with Malme-3M; 40.5 µM (inactive) in the test with NCI/ADR-RES; 17.5 µM (inactive) with A549; 17.9 µM (inactive) with NCI-H460. In addition, the GI50 with OVCAR-8 is 8.13 µM (inactive); in the test on PC-3 it was 39 µM (inactive); in the test on NCI-H23, > 100 µM (inactive); in the test with A498, 12.3 µM (inactive); in the test on KM12, > 100 µM (inactive); in the test on U-251 it was 13.6 µM (inactive). Also, in the test with CAKI-1, the GI50 was 0.21 µM (active).

In the case of `O=C1c2ccccc2C2(c3ccc(Cl)cc3)NCc3ccccc3CN12` (stereo not drawn), the GI50 is 32.9 µM (inactive) in the test on K562; 17 µM (inactive) in the test with SNB-19; 26.7 µM (inactive) in the test with MDA-MB-435; 14 µM (inactive) in the test with HL-60; 16.3 µM (inactive) in the test with SF-539; 31.3 µM (inactive) in the test with TK-10. In addition, the GI50 with SR is 24.7 µM (inactive); with HCT-116, 10.8 µM (inactive); in the test with NCI/ADR-RES, 14 µM (inactive); in the test with A549, 18.5 µM (inactive); with OVCAR-4, 23.7 µM (inactive); in the test with NCI-H460, 27.9 µM (inactive). Further, the GI50 in the test with OVCAR-8 was 23.1 µM (inactive); in the test on PC-3, 16.1 µM (inactive); in the test on NCI-H23, 17.7 µM (inactive); in the test on A498, 19.4 µM (inactive); with KM12, 21.9 µM (inactive); with U-251, 28.6 µM (inactive). Also, the GI50 with CAKI-1 was 63 µM (inactive).

`CN(C)CCCNC(=O)c1c(O)c2ccccc2n(C)c1=O`: the GI50 was 79.3 µM (inactive) in the test on K562; 61.8 µM (inactive) in the test with MDA-MB-435; 36.5 µM (inactive) in the test on HL-60; 78.3 µM (inactive) in the test on SF-539; 67.3 µM (inactive) with TK-10; 41.5 µM (inactive) in the test with SR. Besides, the GI50 with HCT-116 was 44.1 µM (inactive); in the test with Malme-3M, 72.4 µM (inactive); in the test with NCI/ADR-RES, 41.2 µM (inactive); with A549 it was 82.2 µM (inactive); in the test with OVCAR-4, 78.3 µM (inactive); in the test with NCI-H460 it was 42 µM (inactive). In addition, the GI50 in the test with OVCAR-8 is 49.4 µM (inactive); in the test with PC-3 it was 67.6 µM (inactive); in the test on NCI-H23, > 100 µM (inactive); in the test with A498 it was > 100 µM (inactive); with KM12 it was > 100 µM (inactive); with U-251, 39.5 µM (inactive). Moreover, the GI50 in the test on CAKI-1 was 41.4 µM (inactive).

Regarding `N=c1oc2ccc(Cl)cc2cc1C(=O)NC1CCCCC1`, the GI50 in the test with K562 was 66.7 µM (inactive); with SNB-19, > 100 µM (inactive); in the test with MDA-MB-435, 49.2 µM (inactive); in the test with HL-60 it was 39.7 µM (inactive); with SF-539, 81.8 µM (inactive); with SR, 51.5 µM (inactive). In addition, the GI50 is 55.5 µM (inactive) with HCT-116; 81.5 µM (inactive) in the test on NCI/ADR-RES; 71.3 µM (inactive) with A549; > 100 µM (inactive) with OVCAR-4; 59.6 µM (inactive) with NCI-H460; > 100 µM (inactive) in the test on OVCAR-8. In addition, the GI50 was 68.5 µM (inactive) with PC-3; > 100 µM (inactive) with NCI-H23; 63.8 µM (inactive) with A498; 47.6 µM (inactive) in the test with KM12; > 100 µM (inactive) with U-251; > 100 µM (inactive) with CAKI-1.
